Laboratory results published in US6054441A, “Oxypurine nucleosides and their congeners, and acyl derivatives thereof, for improvement of hematopoiesis” (priority 1995, dated 2000).

Experiments:
Type in all cases: in vivo, Balb/C mice
[1] = system: hematopoietic recovery after cyclophosphamide; assay: Hematopoietic recovery after cyclophosphamide (Example 47)
Protocol: Cyclophosphamide (CP) (275 mg/kg, i.p.) was administered to 48 Balb/C female mice weighing approximately 20 grams each. Twenty-four hours later and each day thereafter for a total of 6 days, mice were given a 0.4 ml i.p. injection of either physiological saline (controls), benzoylguanosine (2.5 μmoles/mouse/day in 0.2% Tween 80), or palmitoylguanosine (2.5 μmoles/mouse/day in 0.2% Tween 80). On days 7 and 10 following CP administration 8 animals from each of the 3 groups were bled and then were sacrificed by cervical dislocation. Spleens were removed and weighed, and complete blood cell counts performed.

[2] = system: hematopoiesis in normal mice; assay: Hematopoiesis in normal mice (Example 44)
Protocol: Normal, otherwise untreated, female Balb/C mice weighing approximately 20 grams each received a total of 4 or 9 0.4 ml intraperitoneal injections (one per day) of either Tween-80 (0.2%) (controls), palmitoylguanosine (2.5 μmoles/mouse/day), or palmitoyldeoxyinosine (2.5 μmoles/mouse/day). Twenty-four hours after the 4th or 9th treatment, groups of 5 or 6 animals from each of the 3 groups were bled and then sacrificed by cervical dislocation. Spleens were removed and weighed, and complete blood cell counts performed.

[3] = system: hematopoietic recovery after cyclophosphamide; assay: Comparative dose-response, hematopoietic recovery after cyclophosphamide (Example 53)
Protocol: Cyclophosphamide (CP) (275 mg/kg, i.p.) was administered to 96 Balb/C female mice weighing approximately 20 grams each. Twenty-four hours later and each day thereafter mice were given a 0.4 ml i.p. injection of either physiological saline (controls), palmitoylguanosine at one of four different doses: 0.2, 0.4, 1.0 or 2.0 μmoles/mouse), or palmitoyldeoxyguanosine at a dose of 1.0 μmoles/mouse. On days 5 and 7 following CP administration 8 animals from each of the 6 groups were bled and then sacrificed by cervical dislocation. Spleens were removed and weighed, and complete blood cell counts performed.

[4] = system: hematopoiesis in normal mice; assay: Hematopoiesis in normal mice (Example 56); conditions: day 5; 2.6 μmoles/mouse, 4 days
Method in brief: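 Normal female Balb/C mice (~20 g; 3 per group) received daily i.p. saline or acylated guanosine derivatives (2.6 μmoles/mouse) for 4 days. On day 5, animals were bled and sacrificed. Spleen weights, complete blood counts and femoral marrow differential counts were recorded.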

[5] = day 5, palmitoylguanosine 2.0, palmitoyldeoxyguanosine 1.0 μmoles/mouse
[6] = day 7, palmitoylguanosine 1.0 and 2.0, palmitoyldeoxyguanosine 1.0 μmoles/mouse

## CCCCCCCCCCCCCCCC(=O)OC[C@H]1O[C@@H](n2cnc3c(=O)[nH]c(N)nc32)[C@H](O)[C@@H]1O
[1]; day 7, 2.5 μmoles/mouse/day
  Neutrophils: significantly elevated
  spleen weight: significantly elevated
  total white blood cells: significantly elevated
[1]; day 10
  platelet number: significantly greater
[2]; day 5, 2.5 μmoles/mouse/day i.p.
  spleen weight: significantly greater
[2]; day 10, vs Tween 80
  total leukocyte counts: significantly elevated
[3]; day 5, palmitoylguanosine 1.0 μmoles/mouse
  total neutrophil counts: significantly increased
[3]; [5]
  spleen weight: significantly elevated
  total neutrophil counts: significantly elevated
  white blood cell counts: significantly elevated
[3]; [6]
  spleen weight: significantly elevated
  total neutrophil counts: significantly elevated
  white blood cell counts: significantly elevated
[4]
  spleen weight: significantly elevated
